Assay [1] addresses T1, Human PDGFRβ, cytoplasmic domain (GST-PDGFRβ) (Homo sapiens, UniProt P09619).
T1 construct: made in house
The assay is described as follows: Human PDGFRβ biochemical inhibition assay (off-chip Mobility Shift Assay). In a few lines:
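GST-tagged cytoplasmic domain (aa 557-1106) from baculovirus was incubated 1 h at room temperature with compound, CSKtide, ATP at Km and Mg²⁺ in HEPES buffer, pH 7.5. Phosphorylated and unphosphorylated peptide were separated by off-chip mobility shift, and the product ratio P/(P+S) gave percent inhibition.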

For assay [2], the target named is T2, Human PDGFRα, cytoplasmic domain (GST-PDGFRα) (Homo sapiens, UniProt P16234).
T2 construct: made in house
T2 sequence (P16234 550-1089 T674I): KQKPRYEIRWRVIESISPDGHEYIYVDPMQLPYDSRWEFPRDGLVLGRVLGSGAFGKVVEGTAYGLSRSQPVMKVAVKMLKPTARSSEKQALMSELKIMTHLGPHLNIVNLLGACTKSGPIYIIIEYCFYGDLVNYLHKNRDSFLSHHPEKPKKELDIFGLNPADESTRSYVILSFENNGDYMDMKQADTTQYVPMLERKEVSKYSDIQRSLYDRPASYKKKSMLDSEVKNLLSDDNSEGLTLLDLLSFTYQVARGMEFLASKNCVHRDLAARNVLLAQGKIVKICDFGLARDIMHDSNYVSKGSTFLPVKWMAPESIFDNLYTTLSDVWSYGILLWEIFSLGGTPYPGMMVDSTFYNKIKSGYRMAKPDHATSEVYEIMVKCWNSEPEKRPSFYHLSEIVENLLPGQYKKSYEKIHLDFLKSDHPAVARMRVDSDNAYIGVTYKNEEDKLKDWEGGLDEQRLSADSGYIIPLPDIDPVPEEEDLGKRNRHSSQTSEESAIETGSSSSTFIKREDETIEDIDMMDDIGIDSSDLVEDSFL
The assay is described as follows: Human PDGFRα biochemical inhibition assay (off-chip Mobility Shift Assay).

T1 sequence (P09619 with tags, fused parts or gaps): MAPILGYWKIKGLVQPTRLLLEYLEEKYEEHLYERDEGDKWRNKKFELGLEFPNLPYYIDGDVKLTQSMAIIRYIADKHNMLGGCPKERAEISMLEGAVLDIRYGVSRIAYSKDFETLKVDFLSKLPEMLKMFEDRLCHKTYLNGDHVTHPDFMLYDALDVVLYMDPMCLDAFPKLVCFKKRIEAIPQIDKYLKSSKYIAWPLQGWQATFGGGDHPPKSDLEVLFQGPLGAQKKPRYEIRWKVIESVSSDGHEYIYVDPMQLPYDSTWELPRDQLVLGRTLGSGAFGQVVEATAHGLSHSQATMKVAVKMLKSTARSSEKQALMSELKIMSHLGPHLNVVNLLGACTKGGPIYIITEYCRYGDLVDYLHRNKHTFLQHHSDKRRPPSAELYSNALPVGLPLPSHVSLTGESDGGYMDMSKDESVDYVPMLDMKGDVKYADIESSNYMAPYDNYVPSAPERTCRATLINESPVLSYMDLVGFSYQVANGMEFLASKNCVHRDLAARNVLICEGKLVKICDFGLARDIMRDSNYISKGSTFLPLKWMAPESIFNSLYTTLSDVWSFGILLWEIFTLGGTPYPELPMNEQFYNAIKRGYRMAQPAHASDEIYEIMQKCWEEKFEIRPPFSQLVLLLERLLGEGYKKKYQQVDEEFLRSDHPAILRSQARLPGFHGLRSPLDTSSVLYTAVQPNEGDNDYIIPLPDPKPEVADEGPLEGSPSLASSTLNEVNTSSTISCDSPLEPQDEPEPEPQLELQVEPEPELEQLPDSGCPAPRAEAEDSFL

The IC50 is the concentration at which inhibition is half-maximal. For `Cc1cncc(C(=O)Nc2cccc([C@H](C)Nc3cnc4[nH]cc(-c5ccncc5)c4n3)c2)c1` [Compound 592, (S)-5-methyl-N-(3-(1-((7-(pyridin-4-yl)-5H-pyrrolo[2,3-b]pyrazin-2-yl)amino)ethyl)phenyl)nicotinamide], the half-maximal inhibitory concentration (IC50) in assay [1] and in assay [2] was less than 300 nM in each case.
Turning to `CCn1cc2ncc(N[C@@H](C)c3cc(NC(=O)Cc4cncc(Cl)c4)ccc3F)nc2n1` [Compound 663, (S)-2-(5-chloropyridin-3-yl)-N-(3-(1-((2-ethyl-2H-pyrazolo[3,4-b]pyrazin-6-yl)amino)ethyl)-4-fluorophenyl)acetamide], the IC50 in assay [1] was 300 to 1000 nM; in assay [2], less than 300 nM.
As to `CCn1cc2ncc(N[C@@H](C)c3cccc(NC(=O)c4ccc(N5CCOCC5)c(Cl)c4)c3)nc2n1` [Compound 360, (S)-3-chloro-N-(3-(1-((2-ethyl-2H-pyrazolo[3,4-b]pyrazin-6-yl)amino)ethyl)phenyl)-4-morpholinobenzamide], the IC50 in assay [1] and in assay [2] was less than 300 nM in each case.
Take `Cc1cc(C(=O)Nc2cccc([C@H](C)Nc3cnc4cnn(C)c4n3)c2)ccc1C(=O)OCc1oc(=O)oc1C` [Compound 267, (5-methyl-2-oxo-1,3-dioxol-4-yl)methyl (S)-2-methyl-4-((3-(1-((1-methyl-1H-pyrazolo[3,4-b]pyrazin-6-yl)amino)ethyl)phenyl)carbamoyl)benzoate]: the IC50 in assay [1] and in assay [2] was less than 300 nM throughout.
For the compound `CCn1cc2ncc(N[C@@H](C)c3cccc(NC(=O)c4cnc(C5OCCO5)s4)c3)nc2n1` [Compound 400, (S)-2-(1,3-dioxolan-2-yl)-N-(3-(1-((2-ethyl-2H-pyrazolo[3,4-b]pyrazin-6-yl)amino)ethyl)phenyl)thiazole-5-carboxamide], the IC50 in assay [1] was no less than 1000 nM; in assay [2], 300 to 1000 nM.
For `Cc1cncc(C(=O)Nc2cccc([C@H](C)Nc3cnn4cc(-c5cnn(C)c5)ccc34)c2)c1` [Compound 746, (S)-5-methyl-N-(3-(1-((6-(1-methyl-1H-pyrazol-4-yl)pyrazolo[1,5-a]pyridin-3-yl)amino)ethyl)phenyl) nicotinamide] the same measures were less than 300 nM and less than 300 nM.
For `C[C@H](Nc1cnc2[nH]cc(-c3cnn(C)c3)c2n1)c1cccc(NC(=O)c2ccc(C(F)(F)F)nc2)c1` [Compound 580, (S)-N-(3-(1-((7-(1-methyl-1H-pyrazol-4-yl)-5H-pyrrolo[2,3-b]pyrazin-2-yl)amino)ethyl)phenyl)-6-(trifluoromethyl) nicotinamide], the concentration for half-maximal inhibition (IC50) in assay [1] is less than 300 nM; in assay [2], 300 to 1000 nM.
In the same order, the values of `Cc1cncc(C(=O)Nc2cccc([C@H](C)Nc3cnc4cnn(C)c4c3)c2)c1` [Compound 89, (S)-5-methyl-N-(3-(1-((1-methyl-1H-pyrazolo[4,3-b]pyridin-6-yl)amino)ethyl)phenyl)nicotinamide] are 300 to 1000 nM and less than 300 nM.
In the same order, the values of `Cc1c[nH]c2ncc(N[C@@H](C)c3cccc(NC(=O)c4ccc(C(F)(F)F)nc4)c3)nc12` [Compound 557, (S)-N-(3-(1-((7-methyl-5H-pyrrolo[2,3-b]pyrazin-2-yl)amino)ethyl)phenyl)-6-(trifluoromethyl)nicotinamide] are less than 300 nM and less than 300 nM.
Turning to `Cc1cc(C(=O)Nc2cccc([C@H](C)Nc3cnc4cnn(C)c4n3)c2)cnc1C#N` [Compound 127, (S)-6-cyano-5-methyl-N-(3-(1-((1-methyl-1H-pyrazolo[3,4-b]pyrazin-6-yl)amino)ethyl)phenyl)nicotinamide], the IC50 in assay [1] and in assay [2] was less than 300 nM in each case.
`COc1ccc(-n2ccc3ncc(N[C@@H](C)c4cccc(NC(=O)c5cncc(C)c5)c4)nc32)cc1OC` [Compound 87, (S)-N-(3-(1-((5-(3,4-dimethoxyphenyl)-5H-pyrrolo [2,3-b]|pyrazin-3-yl)amino)ethyl)phenyl)-5-methylnicotinamide]: the IC50 in assay [1] and in assay [2] was less than 300 nM throughout.
`C[C@H](Nc1cnc2[nH]ccc2n1)c1cc(NC(=O)c2cnn(C3CCC3)c2)ccc1F` [Compound 597, (S)-N-(3-(1-((5H-pyrrolo[2,3-b]pyrazin-2-yl)amino)ethyl)-4-fluorophenyl)-1-cyclobutyl-1H-pyrazole-4-carboxamide]: the IC50 in assay [1] and in assay [2] was less than 300 nM in each case.
In the case of `C[C@H](Nc1cnc2cn[nH]c2n1)c1cccc(NC(=O)c2cncc(C(C)(C)O)c2)c1` [Compound 95, (S)-N-(3-(1-((1H-pyrazolo[3,4-6]pyrazin-6-yl)amino)ethyl)phenyl)-5-(2-hydroxypropan-2-yl)nicotinamide], the IC50 in assay [1] and in assay [2] was less than 300 nM each time.
Consider `CCn1cc2ncc(N[C@@H](C)c3cc(NC(=O)c4ccc(C5CC5)nc4)ccc3F)nc2n1` [Compound 302, (S)-6-cyclopropyl-N-(3-(1-((2-ethyl-2H-pyrazolo[3,4-b]pyrazin-6-yl)amino)ethyl)-4-fluorophenyl)nicotinamide], for which the IC50 in assay [1] and in assay [2] was less than 300 nM in each case.
For `CC(C)c1ccc(C(=O)Nc2cccc([C@H](C)Nc3cnc4cnn(C)c4n3)c2)cn1` [Compound 204, (S)-6-isopropyl-N-(3-(1-((1-methyl-1H-pyrazolo[3,4-b]pyrazin-6-yl)amino)ethyl)phenyl)nicotinamide], the IC50 in assay [1] and in assay [2] was less than 300 nM in each case.
Regarding `C[C@H](Nc1cnc2[nH]ccc2n1)c1cccc(NC(=O)c2ccc(OC(F)F)nc2)c1` [Compound 595, (S)-N-(3-(1-((5H-pyrrolo[2,3-b]pyrazin-2-yl)amino)ethyl)phenyl)-6-(difluoromethoxy)nicotinamide], the IC50 in assay [1] and in assay [2] was less than 300 nM each time.
As to `C[C@H](Nc1cnc2cnn(C)c2n1)c1cccc(NC(=O)c2cnn(CC3CC3)c2)c1` [Compound 152, (S)-1-(cyclopropylmethyl)-N-(3-(1-((1-methyl-1H-pyrazolo[3,4-b]pyrazin-6-yl)amino)ethyl)phenyl)-1H-pyrazole-4-carboxamide], the IC50 in assay [1] and in assay [2] was less than 300 nM in each case.
Consider `CCn1cc2ncc(N[C@@H](C)c3cc(NC(=O)c4cc(F)c(CN5CCN(C)CC5)c(Cl)c4)ccc3C)nc2n1` [Compound 518, (S)-3-chloro-N-(3-(1-((2-ethyl-2H-pyrazolo[3,4-b]pyrazin-6-yl)amino)ethyl)-4-methylphenyl)-5-fluoro-4-((4-methylpiperazin-1-yl)methyl)benzamide], for which the IC50 in assay [1] and in assay [2] was less than 300 nM each time.
`CCn1cc2ncc(N[C@@H](C)c3cc(NC(=O)c4ccc(C(F)(F)F)nc4)ccc3F)nc2n1` [Compound 10, (S)—N-(3-(1-((2-ethyl-2H-pyrazolo[3,4-b]pyrazin-6-yl)amino)ethyl)-4-fluorophenyl)-6-(trifluoromethyl)nicotinamide]: the IC50 in assay [1] and in assay [2] was less than 300 nM in each case.
Consider `CCn1cc2ncc(N[C@@H](C)c3cccc(NC(=O)Cc4ccc(C)c(C)n4)c3)nc2n1` [Compound 716, (S)-2-(5,6-dimethylpyridin-2-yl)-N-(3-(1-((2-ethyl-2H-pyrazolo[3,4-b]pyrazin-6-yl)amino)ethyl)phenyl)acetamide], for which the values for the IC50 in assay [1] and in assay [2] were no less than 1000 nM and less than 300 nM, respectively.
In the same order, the values of `CCOc1cncc(C(=O)Nc2cccc([C@H](C)Nc3cnc4cnn(C)c4n3)c2)c1` [Compound 242, (S)-5-ethoxy-N-(3-(1-((1-methyl-1H-pyrazolo[3,4-b]pyrazin-6-yl)amino)ethyl)phenyl)nicotinamide] are less than 300 nM and less than 300 nM.
In the same order, the values of `Cc1cc(C(=O)Nc2ccc(F)c([C@H](C)Nc3cnc4cnn(C)c4n3)c2)cnc1NC(C)C` [Compound 232, (S)-N-(4-fluoro-3-(1-((1-methyl-1H-pyrazolo[3,4-b]pyrazin-6-yl)amino)ethyl)phenyl)-6-(isopropylamino)-5-methylnicotinamide] are less than 300 nM and less than 300 nM.
Regarding `CCn1cc2ncc(N[C@@H](C)c3cc(NC(=O)Cc4cc(Cl)ccn4)ccc3C)nc2n1` [Compound 677, (6)-2-(4-chloropyridin-2-yl)-N-(3-(1-((2-ethyl-2H-pyrazolo[3,4-b]pyrazin-6-yl)amino)ethyl)-4-methylphenyl)acetamide], the IC50 in assay [1] and in assay [2] was less than 300 nM throughout.
For `Cc1cncc(C(=O)Nc2cccc([C@H](C)Nc3cnc4cc(F)c(F)cc4c3)c2)c1` [Compound 30, (S)-N-(3-(1-((6,7-difluoroquinolin-3-yl)amino)ethyl)phenyl)-5-methylnicotinamide], the IC50 in assay [1] is 300 to 1000 nM; in assay [2], less than 300 nM.
In the same order, the values of `C[C@H](Nc1cnc2cn(CC3CNC3)nc2n1)c1cc(NC(=O)c2cnc(C(F)(F)F)s2)ccc1F` [Compound 391, (S)-N-(3-(1-((2-(azetidin-3-ylmethyl)-2H-pyrazolo[3,4-b]pyrazin-6-yl)amino)ethyl)-4-fluorophenyl)-2-(trifluoromethyl)thiazole-5-carboxamide] are less than 300 nM and less than 300 nM.
For `CC(=O)Oc1ccc(C(=O)Nc2cccc([C@H](C)Nc3cnc4cnn(C)c4n3)c2)cc1` [Compound 214, (S)-4-((3-(1-((1-methyl-1H-pyrazolo[3,4-b]pyrazin-6-yl)amino)ethyl)phenyl)carbamoyl) phenyl acetate] the same measures were less than 300 nM and less than 300 nM.
As for `CCn1cc2ncc(N[C@@H](C)c3cccc(NC(=O)c4cc(F)c(CN5CCCC5)c(Cl)c4)c3)nc2n1` [Compound 488, (S)-3-chloro-N-(3-(1-((2-ethyl-2H-pyrazolo[3,4-b]pyrazin-6-yl)amino)ethyl)phenyl)-5-fluoro-4-(pyrrolidin-1-ylmethyl) benzamide], the IC50 in assay [1] and in assay [2] was less than 300 nM in each case.

The values are drawn from patent US20230102554A1 (GB002, INC., priority 2019, published 2023).
